In PubChem BioAssay AID488998 (The Scripps Research Institute Molecular Screening Center, 2010):
Active and inactive are the calls of the source.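 How the source made its calls: active means IC50 at or below 10 µM; inactive means IC50 above 10 µM.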

Molecular target: Lytic switch protein BZLF1 (Epstein-Barr virus (strain B95-8)) (UniProt P03206)
Experiment: EBV ZTA inhibitors, concentration series – biochemical, fluorescence polarization, dose response, round 0, counter-screen for EBNA-1 inhibitor project, late-stage follow-up (AID 488998)
Conditions: purified Zta–Cy5 ZRE DNA binding

Sequence of Lytic switch protein BZLF1 (Epstein-Barr virus (strain B95-8)) (P03206 whole entry, looked up): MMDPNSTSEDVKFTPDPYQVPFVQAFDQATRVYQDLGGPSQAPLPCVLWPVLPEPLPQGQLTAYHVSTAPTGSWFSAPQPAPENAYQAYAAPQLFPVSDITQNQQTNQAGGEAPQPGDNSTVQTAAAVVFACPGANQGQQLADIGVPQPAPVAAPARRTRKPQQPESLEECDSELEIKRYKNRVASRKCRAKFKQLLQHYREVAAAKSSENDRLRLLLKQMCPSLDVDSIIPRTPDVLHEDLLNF

| IC50 | Structure (SMILES) |
| --- | --- |
| > 111 µM (inactive) | Cc1ccc(-n2nnnc2SCC(=O)c2cc(C)n(CC3CCCO3)c2C)cc1 (stereo not given) |
| > 111 µM (inactive) | COc1cccc(C(=O)Nc2nc3ccc(S(C)(=O)=O)cc3s2)c1 |
| > 111 µM (inactive) | Cc1cc(C(=O)CSc2nnnn2C)c(C)n1CC1CCCO1 (stereo not given) |
| > 111 µM (inactive) | CS(=O)(=O)c1ccc2nc(NC(=O)c3ccccc3F)sc2c1 |
| > 111 µM (inactive) | O=C(CSc1nnnn1-c1ccccc1)c1ccn(CC2CCCO2)c1 (stereo not given) |
| > 111 µM (inactive) | COc1cccc2sc(NC(=O)c3ccc(C)c(C)c3)nc12 |
| > 111 µM (inactive) | Cc1cc(C(=O)CSc2nnnn2C2CC2)c(C)n1CC1CCCO1 (stereo not given) |
| > 111 µM (inactive) | CCn1c(C)cc(C(=O)CSc2nnnn2-c2ccccc2)c1C |
| > 111 µM (inactive) | Cc1cccc(-n2nnnc2SCC(=O)c2cc(C)n(CC3CCCO3)c2C)c1 (stereo not given) |
| > 111 µM (inactive) | Cc1ccc(C(=O)Nc2nc3ccc(S(C)(=O)=O)cc3s2)cc1 |
| > 111 µM (inactive) | Cc1ccc(C(=O)Nc2nc3cc(Br)ccc3s2)cc1C |
| > 111 µM (inactive) | Cc1cc(C(=O)CSc2nnnn2-c2ccccc2)c(C)n1Cc1cccs1 |
| > 111 µM (inactive) | Cc1cc(C(=O)CSc2nnnn2-c2cccc(F)c2)c(C)n1CC1CCCO1 (stereo not given) |
| > 111 µM (inactive) | Cc1ccccc1C(=O)Nc1nc2ccc(S(C)(=O)=O)cc2s1 |
| > 111 µM (inactive) | CS(=O)(=O)c1ccc2nc(NC(=O)c3ccccc3Cl)sc2c1 |
| > 111 µM (inactive) | COc1ccc2nc(NC(=O)c3ccc(C)c(C)c3)sc2c1 |
| > 111 µM (inactive) | Cc1cc(C(=O)CSc2nnnn2-c2ccc(Cl)cc2)c(C)n1CC1CCCO1 (stereo not given) |
| > 111 µM (inactive) | COc1ccccc1C(=O)Nc1nc2ccc(S(C)(=O)=O)cc2s1 |
| > 111 µM (inactive) | CS(=O)(=O)c1ccc2nc(NC(=O)c3ccc(Cl)cc3)sc2c1 |
| > 111 µM (inactive) | CS(=O)(=O)c1ccc2nc(NC(=O)c3cccc(F)c3)sc2c1 |
| > 111 µM (inactive) | CS(=O)(=O)c1ccc2nc(NC(=O)c3cccc(Cl)c3)sc2c1 |
| > 111 µM (inactive) | COc1ccc(-n2nnnc2SCC(=O)c2cc(C)n(CC3CCCO3)c2C)cc1 (stereo not given) |
| > 111 µM (inactive) | Cc1cc(C(=O)CSc2nnnn2-c2ccccc2)c(C)n1C |
| > 111 µM (inactive) | COc1ccc(C(=O)Nc2nc3ccc(S(C)(=O)=O)cc3s2)cc1 |
| > 111 µM (inactive) | COCCn1c(C)cc(C(=O)CSc2nnnn2-c2ccccc2)c1C |
| > 111 µM (inactive) | Cc1ccccc1-n1nnnc1SCC(=O)c1cc(C)n(CC2CCCO2)c1C (stereo not given) |
| > 111 µM (inactive) | Cc1cccc(C(=O)Nc2nc3ccc(S(C)(=O)=O)cc3s2)c1 |
| > 111 µM (inactive) | COc1ccc2sc(NC(=O)c3ccc(C)c(C)c3)nc2c1 |
| > 111 µM (inactive) | Cc1ccc(C(=O)Nc2nc3cc(F)ccc3s2)cc1C |
| > 111 µM (inactive) | Cc1ccc(C(=O)Nc2nc3ccc(Br)cc3s2)cc1C |
